# Compound: O=C(NC1CCNCC1)c1n[nH]cc1NC(=O)c1c(Cl)cccc1Cl [AT-7519] + C[C@@H](Oc1cc(-c2cnn(C3CCNCC3)c2)cnc1N)c1c(Cl)ccc(F)c1Cl [Crizotinib] (partner 1 µM)
# Test: relative viability (nuclei count vs DMSO), 5 days (fraction); higher = more cells survive
# Conditions: first compound 0.01 µM
# Method in brief: (§1)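 Each reported value is a median over duplicate plates. It expresses relative viability: treated-well nuclei count divided by vehicle-well nuclei count. Lung cancer cell lines in 1536-well plates were dosed by pin tool a day after seeding, alone with one drug or with a fixed anchor-drug dose plus five library-drug doses (not always all listed) in √10 steps, and nuclei were counted after 5 days.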
row,Cell Line,relative viability
1,NCI-H727,0.968
2,NCI-H1650,1.26
3,EBC-1,0.198
4,NCI-H1703,0.585
5,NCI-H1993,0.846
6,SW 1573,0.817
7,NCI-H838,0.805
8,LCLC-103H,1.05
9,NCI-H520,0.753
10,NCI-H2126,1.07
11,EMC-BAC-2,0.766
12,NCI-H2085,0.762
13,Calu-6,0.928
14,HCC-366,0.463
15,NCI-H1666,0.902
16,NCI-H596,0.828
17,LK-2,0.229
18,NCI-H2087,0.801

row,Cell Line,relative viability
1,SK-MES-1,1.05
2,H3255,0.942
3,COR-L23,0.639
4,COR-L 105,0.823
5,IA-LM,1.02
6,LOU-NH91,0.73
7,ChaGo-K-1,1.08
8,NCI-H2170,1.16
9,NCI-H2405,0.794
10,HOP-62,0.893
11,A549,0.635
12,NCI-H1299,1.03
13,CAL-12T,0.562
14,NCI-H2228,0.549
15,NCI-H1563,0.857
16,NCI-H1944,1.18
17,ABC-1,1.06
18,NCI-H358,0.544

# Same assay, conditions: first compound 0.03162 µM
row,Cell Line,relative viability
1,NCI-H727,0.875
2,NCI-H1650,0.956
3,EBC-1,0.228
4,NCI-H1703,0.59
5,NCI-H1993,0.82
6,SW 1573,0.755
7,NCI-H838,0.826
8,LCLC-103H,1.08
9,NCI-H520,0.768
10,NCI-H2126,1.05
11,EMC-BAC-2,0.744
12,NCI-H2085,0.832
13,Calu-6,0.855
14,HCC-366,0.668
15,NCI-H1666,0.972
16,NCI-H596,0.962
17,LK-2,0.235
18,NCI-H2087,0.868

row,Cell Line,relative viability
1,SK-MES-1,0.903
2,H3255,0.838
3,COR-L23,0.632
4,COR-L 105,0.784
5,IA-LM,1.03
6,LOU-NH91,0.742
7,ChaGo-K-1,1.12
8,NCI-H2170,1.26
9,NCI-H2405,0.847
10,HOP-62,0.966
11,A549,0.867
12,NCI-H1299,0.997
13,CAL-12T,0.537
14,NCI-H2228,0.379
15,NCI-H1563,0.809
16,NCI-H1944,1.34
17,ABC-1,1.35
18,NCI-H358,0.544

# Same assay, conditions: first compound 0.3162 µM
row,Cell Line,relative viability
1,NCI-H727,0.6
2,NCI-H1650,0.576
3,EBC-1,0.191
4,NCI-H1703,0.508
5,NCI-H1993,0.813
6,SW 1573,0.84
7,NCI-H838,0.571
8,LCLC-103H,0.999
9,NCI-H520,0.595
10,NCI-H2126,0.931
11,EMC-BAC-2,0.746
12,NCI-H2085,0.696
13,Calu-6,0.677
14,HCC-366,0.457
15,NCI-H1666,0.726
16,NCI-H596,1.05
17,LK-2,0.251
18,NCI-H2087,0.894

row,Cell Line,relative viability
1,SK-MES-1,0.854
2,H3255,0.849
3,COR-L23,0.653
4,COR-L 105,0.469
5,IA-LM,0.573
6,LOU-NH91,0.766
7,ChaGo-K-1,0.792
8,NCI-H2170,1.18
9,NCI-H2405,0.827
10,HOP-62,0.675
11,A549,0.55
12,NCI-H1299,0.947
13,CAL-12T,0.201
14,NCI-H2228,0.403
15,NCI-H1563,1.02
16,NCI-H1944,0.926
17,ABC-1,0.591
18,NCI-H358,0.458

# Same assay, conditions: first compound 1 µM
row,Cell Line,relative viability
1,NCI-H727,0.27
2,NCI-H1650,0.169
3,EBC-1,0.153
4,NCI-H1703,0.0921
5,NCI-H1993,0.577
6,SW 1573,0.368
7,NCI-H838,0.194
8,LCLC-103H,1.27
9,NCI-H520,0.269
10,NCI-H2126,1
11,EMC-BAC-2,0.881
12,NCI-H2085,0.553
13,Calu-6,0.141
14,HCC-366,0.179
15,NCI-H1666,0.604
16,NCI-H596,0.87
17,LK-2,0.227
18,NCI-H2087,0.171

row,Cell Line,relative viability
1,SK-MES-1,0.787
2,H3255,0.756
3,COR-L23,0.132
4,COR-L 105,0.289
5,IA-LM,0.0695
6,LOU-NH91,0.711
7,ChaGo-K-1,0.743
8,NCI-H2170,1.18
9,NCI-H2405,0.598
10,HOP-62,0.889
11,A549,0.25
12,NCI-H1299,0.31
13,CAL-12T,0.16
14,NCI-H2228,0.313
15,NCI-H1563,0.702
16,NCI-H1944,0.862
17,ABC-1,0.183
18,NCI-H358,0.0912

# Compound: C1=CC2=C(C=C(C(=C2N=C1)O)N=NC3=CC4=C(C=C3)C=C(C=C4)S(=O)(=O)O)S(=O)(=O)O + CC(C)C[C@H](NC(=O)[C@H](Cc1ccccc1)NC(=O)c1cnccn1)B(O)O [Bortezomib] (partner 0.002 µM)
# Test: as above
# Conditions: first compound 0.08 µM
# Method in brief: as §1
row,Cell Line,relative viability
1,NCI-H727,0.917
2,NCI-H1650,0.196
3,EBC-1,0.648
4,NCI-H1703,0.316
5,NCI-H1993,1.08
6,SW 1573,0.931
7,NCI-H838,0.753
8,LCLC-103H,1.14
9,NCI-H520,0.777
10,NCI-H2126,1.14
11,EMC-BAC-2,1.1
12,NCI-H2085,1.23
13,Calu-6,0.982
14,HCC-366,1.03
15,NCI-H1666,0.874
16,NCI-H596,1.43
17,NCI-H2087,0.888
18,H3255,0.719
19,COR-L23,0.982
20,COR-L 105,0.806
21,IA-LM,0.93
22,LOU-NH91,0.504
23,ChaGo-K-1,1.05
24,NCI-H2405,1.04
25,HOP-62,0.714
26,NCI-H1299,1.06
27,CAL-12T,0.843
28,NCI-H2228,1.17
29,NCI-H1563,0.848
30,ABC-1,0.277

# Same assay, conditions: first compound 0.253 µM
row,Cell Line,relative viability
1,NCI-H727,0.945
2,NCI-H1650,0.212
3,EBC-1,0.515
4,NCI-H1703,0.306
5,NCI-H1993,1.07
6,SW 1573,1.02
7,NCI-H838,0.909
8,LCLC-103H,1.14
9,NCI-H520,0.598
10,NCI-H2126,1.12
11,EMC-BAC-2,1.06
12,NCI-H2085,1.05
13,Calu-6,1.07
14,HCC-366,1.03
15,NCI-H1666,0.658
16,NCI-H596,1.16
17,NCI-H2087,0.902
18,H3255,0.685
19,COR-L23,0.953
20,COR-L 105,0.662
21,IA-LM,0.843
22,LOU-NH91,0.477
23,ChaGo-K-1,1.03
24,NCI-H2405,0.952
25,HOP-62,0.558
26,NCI-H1299,0.99
27,CAL-12T,0.914
28,NCI-H2228,1.01
29,NCI-H1563,0.952
30,ABC-1,0.393

# Same assay, conditions: first compound 0.8 µM
row,Cell Line,relative viability
1,NCI-H727,0.854
2,NCI-H1650,0.22
3,EBC-1,0.585
4,NCI-H1703,0.355
5,NCI-H1993,1.28
6,SW 1573,1.04
7,NCI-H838,0.674
8,LCLC-103H,1.12
9,NCI-H520,0.619
10,NCI-H2126,1.11
11,EMC-BAC-2,1.06
12,NCI-H2085,1.01
13,Calu-6,1.05
14,HCC-366,1.02
15,NCI-H1666,0.799
16,NCI-H596,0.974
17,NCI-H2087,0.856
18,H3255,0.802
19,COR-L23,1.06
20,COR-L 105,0.83
21,IA-LM,0.803
22,LOU-NH91,0.51
23,ChaGo-K-1,0.986
24,NCI-H2405,0.979
25,HOP-62,0.851
26,NCI-H1299,0.999
27,CAL-12T,0.788
28,NCI-H2228,0.917
29,NCI-H1563,0.959
30,ABC-1,0.281

# Same assay, conditions: first compound 2.53 µM
row,Cell Line,relative viability
1,NCI-H727,0.853
2,NCI-H1650,0.193
3,EBC-1,0.494
4,NCI-H1703,0.39
5,NCI-H1993,1.3
6,SW 1573,0.976
7,NCI-H838,0.633
8,LCLC-103H,1.15
9,NCI-H520,0.551
10,NCI-H2126,1.08
11,EMC-BAC-2,1.14
12,NCI-H2085,1.11
13,Calu-6,1.06
14,HCC-366,1.13
15,NCI-H1666,0.859
16,NCI-H596,1.02
17,NCI-H2087,0.669
18,H3255,0.875
19,COR-L23,0.962
20,COR-L 105,0.87
21,IA-LM,0.819
22,LOU-NH91,0.498
23,ChaGo-K-1,0.958
24,NCI-H2405,0.935
25,HOP-62,0.725
26,NCI-H1299,1.02
27,CAL-12T,0.979
28,NCI-H2228,1.01
29,NCI-H1563,0.857
30,ABC-1,0.246

# Same assay, conditions: first compound 8 µM
row,Cell Line,relative viability
1,NCI-H727,0.816
2,NCI-H1650,0.202
3,EBC-1,0.636
4,NCI-H1703,0.26
5,NCI-H1993,0.977
6,SW 1573,1.03
7,NCI-H838,0.764
8,LCLC-103H,1.02
9,NCI-H520,0.459
10,NCI-H2126,1.11
11,EMC-BAC-2,1
12,NCI-H2085,0.953
13,Calu-6,1.02
14,HCC-366,0.985
15,NCI-H1666,0.658
16,NCI-H596,0.769
17,NCI-H2087,0.904
18,H3255,0.741
19,COR-L23,1.03
20,COR-L 105,0.757
21,IA-LM,0.923
22,LOU-NH91,0.496
23,ChaGo-K-1,0.557
24,NCI-H2405,0.4
25,HOP-62,0.637
26,NCI-H1299,1.03
27,CAL-12T,1.03
28,NCI-H2228,0.96
29,NCI-H1563,0.994
30,ABC-1,0.226

# Compound: C1=CC2=C(C=C(C(=C2N=C1)O)N=NC3=CC4=C(C=C3)C=C(C=C4)S(=O)(=O)O)S(=O)(=O)O + Nc1ncn([C@H]2C[C@H](O)[C@@H](CO)O2)c(=O)n1 [Decitabine] (partner 2 µM)
# Test: as above
# Conditions: first compound 0.08 µM
# Method in brief: as §1
row,Cell Line,relative viability
1,NCI-H2342,0.793
2,NCI-H727,0.951
3,NCI-H1650,0.438
4,NCI-H1993,0.573
5,SW 1573,0.55
6,NCI-H838,0.469
7,LCLC-103H,0.811
8,NCI-H520,0.525
9,NCI-H2126,0.577
10,EMC-BAC-2,1.03
11,NCI-H2085,0.561
12,HCC-366,0.299
13,NCI-H1666,0.821
14,NCI-H596,1.1
15,LK-2,0.417
16,NCI-H2087,0.244
17,SK-MES-1,0.39
18,H3255,0.652
19,COR-L23,0.495
20,COR-L 105,0.711
